Test results: patent EP0080051A2, “Heterocyclic compounds and antibacterial and antifungal compositions containing the same as active ingredients” (MEIJI SEIKA KAISHA LTD., priority 1981, dated 1983)
≈ marks a conversion by molar mass, not a printed value. Like-named read-outs stand apart in the source and are kept apart here.

Tests used:
[1] = mouse, p.o.
[2] = tested on: Bacillus anthracis No. 109; assay: microbe, parasite or virus in culture; assay type: cell-based; conditions: NO.109, read-out: Minimal Inhibitory Conc. (MIC)
[3] = tested on: Pseudomonas cepacia M-0527; assay: Antibacterial activity (in medicinal field), MIC; assay type: cell-based; conditions: Burkholderia cepacia, M0527, read-out: Minimal Inhibitory Conc. (MIC)
[4] = tested on: Klebsiella pneumoniae PCI-602; assay: Antibacterial activity (in medicinal field), MIC; assay type: cell-based; conditions: PCI602, read-out: Minimal Inhibitory Conc. (MIC)
[5] = tested on: Serratia marcescens MB-3848; assay: Antibacterial activity (in medicinal field), MIC; assay type: cell-based; conditions: MB3848, read-out: Minimal Inhibitory Conc. (MIC)
[6] = tested on: Staphylococcus faecalis ATCC 8043; assay: Antibacterial activity (in medicinal field), MIC; assay type: cell-based; conditions: ATCC8043, read-out: Minimal Inhibitory Conc. (MIC)
Proteus vulgaris OX-19 = assay: Antibacterial activity (in medicinal field), MIC; assay type: cell-based; conditions: OX19, read-out: Minimal Inhibitory Conc. (MIC)
[7] = tested on: Escherichia coli NIHJ JC-2; assay: Antibacterial activity (in medicinal field), MIC; assay type: cell-based; conditions: NIHJJC2, read-out: Minimal Inhibitory Conc. (MIC)
[8] = tested on: Citrobacter freundii GN-346; assay: Antibacterial activity (in medicinal field), MIC; assay type: cell-based; conditions: GN346, read-out: Minimal Inhibitory Conc. (MIC)
[9] = tested on: Staphylococcus epidermidis ATCC 14990; assay: Antibacterial activity (in medicinal field), MIC; assay type: cell-based; conditions: ATCC14990, read-out: Minimal Inhibitory Conc. (MIC)
[10] = tested on: Staphylococcus aureus 209P JC-1; assay: Antibacterial activity (in medicinal field), MIC; assay type: cell-based; conditions: read-out: Minimal Inhibitory Conc. (MIC)
[11] = tested on: Shigella sonnei EW 33 Type I; assay: Antibacterial activity (in medicinal field), MIC; assay type: cell-based; conditions: EW33TYPEI, read-out: Minimal Inhibitory Conc. (MIC)
[12] = tested on: Trichophyton mentagrophytes; assay: Therapeutic experiment: treatment of trichophytosis in guinea pigs; assay type: in vivo; conditions: 1 % preparation, 0.25 ml once per day over 8 consecutive days, visual observation of diseased skin
Salmonella typhi O-901-W = assay: Antibacterial activity (in medicinal field), MIC; assay type: cell-based; conditions: Salmonella enterica, read-out: Minimal Inhibitory Conc. (MIC)

Structure (SMILES): O=[N+]([O-])c1ccn(CC#CI)c1 [1-(1'-iodopro-pyn-3'-yl)-3-nitropyrrole, 1-(1'-iodopropyn-3'-yl)-3-nitropyrrole]
- Acute Toxicity (survival) ([1]; Dosage 200 mg/kg): All animals survived
- Acute Toxicity (survival) ([1]; Dosage 500 mg/kg): All animals survived
- Acute Toxicity (survival) ([1]; Dosage 800 mg/kg): All animals survived

Structure (SMILES): O=[N+]([O-])c1cn(CC#CI)c(Cl)c1Cl [1-(1'-iodopropyn-3'-yl)-2,3-dichloro-4-nitropyrrole]
- Acute Toxicity (survival) ([1]; Dosage 200 mg/kg): All animals survived
- Acute Toxicity (survival) ([1]; Dosage 500 mg/kg): All animals survived
- Acute Toxicity (survival) ([1]; Dosage 800 mg/kg): All animals survived

Structure (SMILES): O=[N+]([O-])c1cn(CC(I)=C(I)I)c(Cl)c1Cl [1-(2',3',3'-triiodoallyl)-2,3-dichloro-4-nitropyrrole]
- MIC [2]: 31.2 µg/mL (≈ 52.1 µM)
- MIC [3]: 6.25 µg/mL (≈ 10.4 µM)
- MIC [4]: 25 µg/mL (≈ 41.8 µM)
- MIC [5]: 6.25 µg/mL (≈ 10.4 µM)
- MIC [6]: 31.2 µg/mL (≈ 52.1 µM)
- MIC (Proteus vulgaris OX-19): 6.25 µg/mL (≈ 10.4 µM)
- MIC [7]: 12.5 µg/mL (≈ 20.9 µM)
- MIC [8]: 12.5 µg/mL (≈ 20.9 µM)
- MIC [9]: 31.2 µg/mL (≈ 52.1 µM)
- MIC [10]: 31.2 µg/mL (≈ 52.1 µM)
- MIC [11]: 6.25 µg/mL (≈ 10.4 µM)
- Therapeutic Effect: Desquamation [12]: effective
- Therapeutic Effect: Redness [12]: prominently effective
- Therapeutic Effect: Thickening [12]: effective
- MIC (Salmonella typhi O-901-W): 12.5 µg/mL (≈ 20.9 µM)
- Acute Toxicity (survival) ([1]; Dosage 100 mg/kg): All animals survived
- Acute Toxicity (survival) ([1]; Dosage 200 mg/kg): All animals survived
- Acute Toxicity (survival) ([1]; Dosage 800 mg/kg): All animals survived

Structure (SMILES): O=[N+]([O-])c1cc(Cl)n(CC(I)=C(I)I)c1 [1-(2',3',3'-triiodoallyl)-2-chloro-4-nitropyrrole]
- MIC [2]: 6.25 µg/mL (≈ 11.1 µM)
- MIC [3]: 12.5 µg/mL (≈ 22.2 µM)
- MIC [4]: 25 µg/mL (≈ 44.3 µM)
- MIC [5]: 12.5 µg/mL (≈ 22.2 µM)
- MIC [6]: 6.25 µg/mL (≈ 11.1 µM)
- MIC (Proteus vulgaris OX-19): 12.5 µg/mL (≈ 22.2 µM)
- MIC [7]: 12.5 µg/mL (≈ 22.2 µM)
- MIC [8]: 12.5 µg/mL (≈ 22.2 µM)
- MIC [9]: 6.25 µg/mL (≈ 11.1 µM)
- MIC [10]: 6.25 µg/mL (≈ 11.1 µM)
- MIC [11]: 12.5 µg/mL (≈ 22.2 µM)
- MIC (Salmonella typhi O-901-W): 12.5 µg/mL (≈ 22.2 µM)

Structure (SMILES): O=[N+]([O-])c1nccn1CC(I)=C(I)I [1-(2',3',3'-triiodoallyl)-2-nitroimidazole]
- MIC [2]: 6.25 µg/mL (≈ 11.8 µM)
- MIC [3]: 3.12 µg/mL (≈ 5.88 µM)
- MIC [4]: 6.25 µg/mL (≈ 11.8 µM)
- MIC [5]: 25 µg/mL (≈ 47.1 µM)
- MIC [6]: 25 µg/mL (≈ 47.1 µM)
- MIC (Proteus vulgaris OX-19): 6.25 µg/mL (≈ 11.8 µM)
- MIC [7]: 25 µg/mL (≈ 47.1 µM)
- MIC [8]: 3.12 µg/mL (≈ 5.88 µM)
- MIC [9]: 12.5 µg/mL (≈ 23.5 µM)
- MIC [10]: 12.5 µg/mL (≈ 23.5 µM)
- MIC [11]: 3.12 µg/mL (≈ 5.88 µM)
- MIC (Salmonella typhi O-901-W): 12.5 µg/mL (≈ 23.5 µM)

Structure (SMILES): O=[N+]([O-])c1ccn(CC(I)=C(I)I)c1 [1-(2',3',3'-triiodoallyl)-3-nitropyrrole]
- Therapeutic Effect: Desquamation [12]: effective
- Therapeutic Effect: Redness [12]: prominently effective
- Therapeutic Effect: Thickening [12]: effective
- Acute Toxicity (survival) ([1]; Dosage 100 mg/kg): All animals survived
- Acute Toxicity (survival) ([1]; Dosage 200 mg/kg): All animals survived
- Acute Toxicity (survival) ([1]; Dosage 800 mg/kg): All animals survived

Structure (SMILES): IC(I)=C(I)Cn1ccnc1 [1-(2',3',3'-triiodoallyl)-imidazole, 1-(2',3',3'-Triiodoallyl)imidazole]
- MIC [2]: 12.5 µg/mL (≈ 25.7 µM)
- MIC [3]: 6.25 µg/mL (≈ 12.9 µM)
- MIC [4]: 12.5 µg/mL (≈ 25.7 µM)
- MIC [5]: 12.5 µg/mL (≈ 25.7 µM)
- MIC [6]: 25 µg/mL (≈ 51.5 µM)
- MIC (Proteus vulgaris OX-19): 12.5 µg/mL (≈ 25.7 µM)
- MIC [7]: 12.5 µg/mL (≈ 25.7 µM)
- MIC [8]: 12.5 µg/mL (≈ 25.7 µM)
- MIC [9]: 12.5 µg/mL (≈ 25.7 µM)
- MIC [10]: 12.5 µg/mL (≈ 25.7 µM)
- MIC [11]: 6.5 µg/mL (≈ 13.4 µM)
- MIC (Salmonella typhi O-901-W): 12.5 µg/mL (≈ 25.7 µM)

Structure (SMILES): Clc1ccccc1C(c1ccccc1)(c1ccccc1)n1ccnc1 [chlotri-mazol, 1-(O-chloro-d, a-diphenylbenzyl) imidazole, reference compound]
- Therapeutic Effect: Desquamation [12]: effective
- Therapeutic Effect: Redness [12]: in-effective
- Therapeutic Effect: Thickening [12]: effective

Structure (SMILES): O=[N+]([O-])c1c(Cl)cccc1-c1c[nH]cc1Cl [pyrrolni-trin, 3-chloro-4-(2'-nitro-3'-chlorophenyl)pyrrole, reference compound]
- Therapeutic Effect: Desquamation [12]: in-effective
- Therapeutic Effect: Redness [12]: in-effective
- Therapeutic Effect: Thickening [12]: effective
